According to ChEMBL document CHEMBL1201862, “PubChem BioAssay data set” (2004):
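Protocol summary: plate cells (96-well), add compound at 5 concentrations, incubate 48 h, interpolate endpoints linearly. GI50 marks 50% less growth.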 Calls of active or inactive are those of the source. Cut-off read from the data, not from the text of the source: active = GI50 up to about 1.1 µM and inactive = higher.

Columns and labels:
Assay in all cases: inhibition of tumour cell growth, NCI panel, 48 h
SK-OV-3 = test system: SK-OV-3
NCI-H460 = test system: NCI-H460
COLO 205 = test system: COLO 205
IGROV-1 = test system: IGROV-1
A549 = test system: A549
SR = test system: SR
OVCAR-5 = test system: OVCAR-5
SK-MEL-5 = test system: SK-MEL-5
PC-3 = test system: PC-3
HOP-62 = test system: HOP-62
UO-31 = test system: UO-31
MCF7 = test system: MCF7
CCRF-CEM = test system: CCRF-CEM
MDA-N = test system: MDA-N
ACHN = test system: ACHN
U-251 = test system: U-251
K562 = test system: K562
OVCAR-8 = test system: OVCAR-8
HT-29 = test system: HT-29
MDA-MB-231 = test system: MDA-MB-231
NCI-H23 = test system: NCI-H23
M14 = test system: M14
NCI-H522 = test system: NCI-H522
HL-60 = test system: HL-60
SF-295 = test system: SF-295
DU-145 = test system: DU-145
SF-539 = test system: SF-539
Hs-578T = test system: Hs-578T
TK-10 = test system: TK-10
SK-MEL-2 = test system: SK-MEL-2
SK-MEL-28 = test system: SK-MEL-28
NCI/ADR-RES = test system: NCI/ADR-RES
SNB-19 = test system: SNB-19
T47D = test system: T47D
MOLT-4 = test system: MOLT-4
OVCAR-4 = test system: OVCAR-4
RPMI-8226 = test system: RPMI-8226
UACC-62 = test system: UACC-62
SN12C = test system: SN12C
OVCAR-3 = test system: OVCAR-3
SW-620 = test system: SW-620
A498 = test system: A498
UACC-257 = test system: UACC-257
HCT-15 = test system: HCT-15
Malme-3M = test system: Malme-3M
KM12 = test system: KM12
BT-549 = test system: BT-549
LOX IMVI = test system: LOX IMVI
EKVX = test system: EKVX
RXF 393 = test system: RXF 393
CAKI-1 = test system: CAKI-1
786-0 = test system: 786-0
MDA-MB-435 = test system: MDA-MB-435
HCT-116 = test system: HCT-116
SF-268 = test system: SF-268
HCC 2998 = test system: HCC 2998
NCI-H226 = test system: NCI-H226
SNB-75 = test system: SNB-75
HOP-92 = test system: HOP-92

## CC(=O)c1ccccc1NP(=O)(c1ccccc1)c1ccccc1
SK-OV-3
  GI50: 20.4 µM (inactive)
NCI-H460
  GI50: 43.6 µM (inactive)
COLO 205
  GI50: 13.2 µM (inactive)
IGROV-1
  GI50: 46.5 µM (inactive)
A549
  GI50: 56.9 µM (inactive)
SR
  GI50: 60 µM (inactive)
OVCAR-5
  GI50: > 100 µM (inactive)
SK-MEL-5
  GI50: 47.3 µM (inactive)
PC-3
  GI50: > 100 µM (inactive)
HOP-62
  GI50: > 100 µM (inactive)
UO-31
  GI50: 45.3 µM (inactive)
MCF7
  GI50: 64.6 µM (inactive)
CCRF-CEM
  GI50: 33.5 µM (inactive)
MDA-N
  GI50: 36.9 µM (inactive)
ACHN
  GI50: > 100 µM (inactive)
U-251
  GI50: 96.6 µM (inactive)
K562
  GI50: 62.5 µM (inactive)
OVCAR-8
  GI50: > 100 µM (inactive)
HT-29
  GI50: 47.1 µM (inactive)
MDA-MB-231
  GI50: 32.5 µM (inactive)
NCI-H23
  GI50: 79.1 µM (inactive)
M14
  GI50: 33.9 µM (inactive)
NCI-H522
  GI50: 37.3 µM (inactive)
HL-60
  GI50: 33.2 µM (inactive)
SF-295
  GI50: 74.6 µM (inactive)
DU-145
  GI50: > 100 µM (inactive)
SF-539
  GI50: 70.3 µM (inactive)
Hs-578T
  GI50: 53.3 µM (inactive)
TK-10
  GI50: 40.8 µM (inactive)
SK-MEL-2
  GI50: 54.1 µM (inactive)
SK-MEL-28
  GI50: 67.9 µM (inactive)
NCI/ADR-RES
  GI50: 14.1 µM (inactive)
SNB-19
  GI50: > 100 µM (inactive)
T47D
  GI50: 43.3 µM (inactive)
MOLT-4
  GI50: 32.1 µM (inactive)
OVCAR-4
  GI50: 27.5 µM (inactive)
RPMI-8226
  GI50: 16.6 µM (inactive)
UACC-62
  GI50: 35.2 µM (inactive)
SN12C
  GI50: 69.5 µM (inactive)
OVCAR-3
  GI50: 43.1 µM (inactive)
SW-620
  GI50: 97.7 µM (inactive)
A498
  GI50: 31.4 µM (inactive)
UACC-257
  GI50: 68.9 µM (inactive)
HCT-15
  GI50: 66.4 µM
Malme-3M
  GI50: 34 µM (inactive)
KM12
  GI50: 50.7 µM (inactive)
BT-549
  GI50: > 100 µM (inactive)
LOX IMVI
  GI50: 90.6 µM (inactive)
EKVX
  GI50: 45.4 µM (inactive)
RXF 393
  GI50: 43.2 µM (inactive)
CAKI-1
  GI50: 30.8 µM (inactive)
786-0
  GI50: > 100 µM (inactive)
MDA-MB-435
  GI50: 38.7 µM (inactive)
HCT-116
  GI50: 53.2 µM (inactive)
SF-268
  GI50: 74.5 µM (inactive)
HCC 2998
  GI50: > 100 µM (inactive)

## O=c1oc2ccc([N+](=O)[O-])cc2c(Nc2ccc3c(c2)Oc2ccccc2O3)c1[N+](=O)[O-]
SK-OV-3
  GI50: 41.4 µM (inactive)
NCI-H460
  GI50: 30 µM (inactive)
COLO 205
  GI50: 21.7 µM (inactive)
IGROV-1
  GI50: 28.6 µM (inactive)
A549
  GI50: 32.1 µM (inactive)
SR
  GI50: 31 µM (inactive)
OVCAR-5
  GI50: 38 µM (inactive)
SK-MEL-5
  GI50: 29.1 µM (inactive)
PC-3
  GI50: 25 µM (inactive)
HOP-62
  GI50: 38.9 µM (inactive)
UO-31
  GI50: 69.2 µM (inactive)
MCF7
  GI50: 26.5 µM (inactive)
CCRF-CEM
  GI50: 30.1 µM (inactive)
MDA-N
  GI50: 36.2 µM (inactive)
ACHN
  GI50: 32.2 µM (inactive)
U-251
  GI50: 18.9 µM (inactive)
K562
  GI50: 30 µM (inactive)
OVCAR-8
  GI50: 26.8 µM (inactive)
HT-29
  GI50: 35.2 µM (inactive)
NCI-H226
  GI50: 32.4 µM (inactive)
MDA-MB-231
  GI50: 19.1 µM (inactive)
NCI-H23
  GI50: 25.1 µM (inactive)
M14
  GI50: 30.1 µM (inactive)
NCI-H522
  GI50: 35.5 µM (inactive)
HL-60
  GI50: 21.3 µM (inactive)
SF-295
  GI50: 43.6 µM (inactive)
DU-145
  GI50: 59.7 µM (inactive)
SF-539
  GI50: 25.4 µM (inactive)
Hs-578T
  GI50: 44.3 µM (inactive)
TK-10
  GI50: 37.3 µM (inactive)
SK-MEL-2
  GI50: 21.3 µM (inactive)
SK-MEL-28
  GI50: 39.9 µM (inactive)
NCI/ADR-RES
  GI50: 29.9 µM (inactive)
SNB-19
  GI50: 28.6 µM (inactive)
T47D
  GI50: 50.2 µM (inactive)
OVCAR-4
  GI50: 42 µM (inactive)
RPMI-8226
  GI50: 23.3 µM (inactive)
UACC-62
  GI50: 25.6 µM (inactive)
SN12C
  GI50: 32.3 µM (inactive)
OVCAR-3
  GI50: 47.3 µM (inactive)
SNB-75
  GI50: 40.9 µM (inactive)
UACC-257
  GI50: 26.2 µM (inactive)
HCT-15
  GI50: 31.1 µM
Malme-3M
  GI50: 69.8 µM (inactive)
KM12
  GI50: 31.9 µM (inactive)
BT-549
  GI50: 30.4 µM (inactive)
LOX IMVI
  GI50: 31.7 µM (inactive)
EKVX
  GI50: 31.6 µM (inactive)
RXF 393
  GI50: 56 µM (inactive)
CAKI-1
  GI50: 28.8 µM (inactive)
786-0
  GI50: 23.4 µM (inactive)
MDA-MB-435
  GI50: 37.1 µM (inactive)
HCT-116
  GI50: 29 µM (inactive)
HOP-92
  GI50: 19.2 µM (inactive)
SF-268
  GI50: 48.1 µM (inactive)
HCC 2998
  GI50: 27.7 µM (inactive)
